Results taken from PubChem BioAssay (NCI).
“And” between values parts separate entries of the source, which are not always exact repeats. Identical values can stand only once.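 In this assay, cells in 96-well plates receive the compound at five concentrations for 48 hours. Endpoints are linearly interpolated between the surrounding concentrations. At the GI50, growth is halved. TGI is the concentration that stops growth completely.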

How the values were obtained:
Assay in all cases: growth of human tumour cells (NCI), 48 h
CCRF-CEM leukemia = system: CCRF-CEM leukemia
HCC-2998 colon = system: HCC-2998 colon
HCT-15 colon = system: HCT-15 colon
HOP-62 NSCLC = system: HOP-62 NSCLC
HS 578T breast = system: HS 578T breast
K-562 leukemia = system: K-562 leukemia
NCI-H522 lung = system: NCI-H522 lung
RXF 393 renal = system: RXF 393 renal
SF-539 CNS = system: SF-539 CNS
SK-OV-3 ovarian = system: SK-OV-3 ovarian
SN12C renal = system: SN12C renal
UO-31 renal = system: UO-31 renal

`CC1=CC(=O)c2cccc(NC3=NCCO3)c21` showed a TGI (CCRF-CEM leukemia) of over 100 µM, a TGI (HCC-2998 colon) of over 100 µM and a TGI (HCT-15 colon) of over 100 µM. The TGI (HOP-62 NSCLC) was over 100 µM, the TGI (HS 578T breast) was over 100 µM and the TGI (K-562 leukemia) was over 100 µM. It also gave a TGI (NCI-H522 lung) of over 100 µM, a TGI (RXF 393 renal) of over 100 µM and a TGI (SF-539 CNS) of over 100 µM. For the same compound, the TGI (SK-OV-3 ovarian) was over 100 µM, the TGI (SN12C renal) was over 100 µM and the TGI (UO-31 renal) was over 100 µM.

In the case of `Cc1cc(=O)c2c(O)c3c(O)cc(O)c4c5c(O)cc(O)c6c(O)c7c(=O)cc(C)c8c1c2c(c34)c(c65)c78`, the GI50 (CCRF-CEM leukemia) is reported as > 100 µM and 22.2 µM, the TGI (CCRF-CEM leukemia) is reported as over 100 µM and the GI50 (HCC-2998 colon) is reported as > 100 µM and 28.3 µM. The TGI (HCC-2998 colon) was over 100 µM, the GI50 (HCT-15 colon) was > 100 µM and 20.1 µM and the TGI (HCT-15 colon) was > 100 µM and 52 µM. For the same compound, the TGI (HOP-62 NSCLC) was over 73 µM, the TGI (HS 578T breast) was over 100 µM and the TGI (K-562 leukemia) was over 100 µM. For the same compound, the GI50 (NCI-H522 lung) was > 100 µM and 19.4 µM, the TGI (NCI-H522 lung) was > 100 µM and 44.2 µM and the TGI (RXF 393 renal) was 88.8 µM. The GI50 (SF-539 CNS) was over 100 µM, the TGI (SF-539 CNS) was over 100 µM and the GI50 (SK-OV-3 ovarian) was > 100 µM and 21.6 µM. The TGI (SK-OV-3 ovarian) was > 100 µM and 41.9 µM, the TGI (SN12C renal) was over 100 µM and the GI50 (UO-31 renal) was > 100 µM and 25.5 µM. For the same compound, the TGI (UO-31 renal) was > 100 µM and 65.9 µM.

Compound `[N-]=[N+]=C1CNC(=O)NC1=O` has a TGI (CCRF-CEM leukemia) of over 100 µM, a TGI (HCC-2998 colon) of over 100 µM and a TGI (HCT-15 colon) of over 100 µM. For the same compound, the TGI (HOP-62 NSCLC) was over 100 µM, the TGI (HS 578T breast) was over 100 µM and the TGI (K-562 leukemia) was over 100 µM. The TGI (NCI-H522 lung) was over 100 µM, the TGI (RXF 393 renal) was over 100 µM and the TGI (SF-539 CNS) was over 100 µM. The TGI (SK-OV-3 ovarian) was over 100 µM, the TGI (SN12C renal) was over 100 µM and the TGI (UO-31 renal) was over 100 µM.

`Cc1ccccc1NC(=S)N=Nc1c(O)[nH]c2ccccc12` gave a TGI (CCRF-CEM leukemia) of over 100 µM, a TGI (HCC-2998 colon) of over 100 µM and a TGI (HCT-15 colon) of over 100 µM. For the same compound, the TGI (HOP-62 NSCLC) was over 100 µM, the TGI (HS 578T breast) was over 100 µM and the TGI (K-562 leukemia) was over 100 µM. The TGI (NCI-H522 lung) was over 100 µM, the TGI (RXF 393 renal) was over 100 µM and the TGI (SF-539 CNS) was over 100 µM. The TGI (SK-OV-3 ovarian) was over 100 µM, the TGI (SN12C renal) was over 100 µM and the TGI (UO-31 renal) was over 100 µM.

With `COc1ccc2[nH]c(C(=O)N3CC(CCl)c4ccc([N+](=O)[O-])cc43)cc2c1` (stereo not drawn) the TGI (CCRF-CEM leukemia) was over 100 µM, the TGI (HCC-2998 colon) was over 100 µM and the TGI (HCT-15 colon) was over 100 µM. For the same compound, the TGI (HOP-62 NSCLC) was over 100 µM, the TGI (HS 578T breast) was over 100 µM and the TGI (K-562 leukemia) was over 100 µM. The TGI (NCI-H522 lung) was over 100 µM, the TGI (RXF 393 renal) was over 100 µM and the TGI (SF-539 CNS) was over 100 µM. For the same compound, the TGI (SK-OV-3 ovarian) was over 100 µM, the TGI (SN12C renal) was over 100 µM and the TGI (UO-31 renal) was over 100 µM.

For `N=C(N)n1[nH]c2c(c1=O)CCC2`, the TGI (CCRF-CEM leukemia) was over 100 µM, the TGI (HCC-2998 colon) was over 100 µM and the TGI (HCT-15 colon) was over 100 µM. It also gave a TGI (HOP-62 NSCLC) of over 100 µM, a TGI (HS 578T breast) of over 100 µM and a TGI (K-562 leukemia) of over 100 µM. For the same compound, the TGI (NCI-H522 lung) was over 100 µM, the TGI (RXF 393 renal) was over 100 µM and the TGI (SF-539 CNS) was over 100 µM. It also gave a TGI (SK-OV-3 ovarian) of over 100 µM, a TGI (SN12C renal) of over 100 µM and a TGI (UO-31 renal) of over 100 µM.

`O=C1c2ccccc2C(=O)N1C(=S)c1ccccc1` gave a TGI (CCRF-CEM leukemia) of over 100 µM, a TGI (HCC-2998 colon) of over 100 µM and a TGI (HCT-15 colon) of over 100 µM. For the same compound, the TGI (HOP-62 NSCLC) was over 100 µM, the TGI (HS 578T breast) was over 100 µM and the TGI (K-562 leukemia) was over 100 µM. For the same compound, the TGI (NCI-H522 lung) was over 100 µM, the TGI (RXF 393 renal) was over 100 µM and the TGI (SF-539 CNS) was over 100 µM. It also gave a TGI (SK-OV-3 ovarian) of over 100 µM, a TGI (SN12C renal) of over 100 µM and a TGI (UO-31 renal) of over 100 µM.

`C=CCC1NCCC2=C1C(S(=O)(=O)c1ccc(C)cc1)c1ccccc12` (stereo not drawn) showed a TGI (CCRF-CEM leukemia) of 28.6 µM, a TGI (HCC-2998 colon) of 3.6 µM and a TGI (HCT-15 colon) of 27.8 µM. The TGI (HOP-62 NSCLC) was 28.2 µM, the TGI (HS 578T breast) was 35.1 µM and the TGI (K-562 leukemia) was 63.4 µM. It also gave a TGI (NCI-H522 lung) of 26 µM, a TGI (RXF 393 renal) of 17.6 µM and a TGI (SK-OV-3 ovarian) of 33.2 µM. The TGI (SN12C renal) was 28.5 µM and the TGI (UO-31 renal) was 20.5 µM.

`COC(=O)c1ccc(C)cc1C1CN=NC12Cc1cc(C)c(C)cc1C2=O` (stereo not drawn) gave a TGI (CCRF-CEM leukemia) of over 100 µM, a TGI (HCC-2998 colon) of 81.7 µM and a TGI (HCT-15 colon) of over 100 µM. It also gave a TGI (HOP-62 NSCLC) of over 100 µM, a TGI (HS 578T breast) of over 100 µM and a TGI (K-562 leukemia) of over 100 µM. The TGI (NCI-H522 lung) was 78.4 µM, the TGI (RXF 393 renal) was over 100 µM and the TGI (SF-539 CNS) was over 100 µM. The TGI (SN12C renal) was over 100 µM and the TGI (UO-31 renal) was over 100 µM.
